Read-outs that look alike come from different tables or passages of the source. A value given as a limit tells only on which side of the number the result lay.

One assay has as its system mouse macrophages. As to the kind of experiment: stimulated release of TNF-α from mouse macrophages. The class given is cell-based. The following applies: for EC50: read-out: EC50 (nM) (mouse). The gist of the method: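 EC50 derived from dose-response curves for stimulated TNF-α release from mouse macrophages.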
Assay [1] deals with differentiated human THP-1 cells. As to the kind of experiment: stimulated release of TNF-α from differentiated human THP-1 cells (ELISA, dose-response). Format: cell-based. The conditions noted are these: for EC50: read-out: EC50 (nM) (THP-1). In a few lines:
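Human THP-1 cells were PMA-differentiated toward macrophages, and stimulated TNF-α release was measured by ELISA. EC50 values were taken from dose-response curves.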
(In general: In an ELISA, binding on a coated surface is turned into a signal by an enzyme label.)

Where [2] appears, read: Macrophage, Table 3, TNF-α release from mouse macrophages.
Setting [3] is: Homo sapiens, THP-1, Table 3, TNF-α release from human THP-1 cells.
[4] abbreviates: Macrophage, Table 7, TNF-α release from mouse macrophages.
Where [5] appears, read: Homo sapiens, THP-1, Table 7, TNF-α release from human THP-1 cells.

For `COc1cc(C(=O)N2C[C@@H](C(=O)N[C@H]3C[C@@H]3c3ccccc3)[C@H](C(=O)N[C@H]3C[C@@H]3c3ccccc3)C2)ccc1C(=O)N1C[C@@H](C(=O)N[C@H]2C[C@@H]2c2ccccc2)[C@H](C(=O)N[C@H]2C[C@@H]2c2ccccc2)C1` [Compound 57, (3S,3′S,4S,4′S)-1,1′-(2-Methoxy-terephthaloyl)-bis(N^3,N^4-bis((1S,2R)-2-phenylcyclopropyl)-pyrrolidine-3,4-dicarboxamide)], the 50% effective concentration (EC50) in the assay on mouse macrophages (setting [2]) amounted to 250 nM; in assay [1] (setting [3]), 30 nM.

On to `O=C(N[C@H]1C[C@@H]1c1ccccc1)[C@@H]1CN(C(=O)c2ccc(C(=O)N3C[C@@H](C(=O)N[C@H]4C[C@@H]4c4ccccc4)[C@H](C(=O)N[C@H]4C[C@@H]4c4ccccc4)C3)c(Br)c2)C[C@H]1C(=O)N[C@H]1C[C@@H]1c1ccccc1` [Compound 58, (3S,3′S,4S,4′S)-1,1′-(2-Bromoterephthaloyl)-bis(N^3,N^4-bis((1S,2R)-2-phenylcyclopropyl)pyrrolidine-3,4-dicarboxamide)], for which the EC50 with mouse macrophages (setting [2]) turned out to be 10 nM; in assay [1] (setting [3]) it was 5 nM.

`O=C(N[C@H]1C[C@@H]1c1ccccc1)[C@@H]1CN(C(=O)c2cc(O)c(C(=O)N3C[C@@H](C(=O)N[C@H]4C[C@@H]4c4ccccc4)[C@H](C(=O)N[C@H]4C[C@@H]4c4ccccc4)C3)cc2O)C[C@H]1C(=O)N[C@H]1C[C@@H]1c1ccccc1` [Compound 59, (3S,3′S,4S,4′S)-1,1′-(2,5-Dihydroxy-terephthaloyl)bis(N^3,N^4-bis((1S,2R)-2-phenylcyclo-propyl)-pyrrolidine-3,4-dicarboxamide)]: the EC50 was > 5000 nM with mouse macrophages (setting [2]) and 20 nM in assay [1] (setting [3]).

As for `O=C(N[C@H]1C[C@@H]1c1ccccc1)[C@@H]1CN(C(=O)c2c(F)c(F)c(C(=O)N3C[C@@H](C(=O)N[C@H]4C[C@@H]4c4ccccc4)[C@H](C(=O)N[C@H]4C[C@@H]4c4ccccc4)C3)c(F)c2F)C[C@H]1C(=O)N[C@H]1C[C@@H]1c1ccccc1` [Compound 60, (3S,3′S,4S,4′S)-1,1′-(Perfluoroterephthaloyl)-bis(N^3,N^4-bis((1S,2R)-2-phenylcyclopropyl)pyrrolidine-3,4-dicarboxamide)], the EC50 in the assay with mouse macrophages (setting [2]) was > 5000 nM; in assay [1] (setting [3]), 110 nM.

For `O=C(N[C@H]1C[C@@H]1c1ccccc1)[C@@H]1CN(C(=O)c2cc(Cl)c(C(=O)N3C[C@@H](C(=O)N[C@H]4C[C@@H]4c4ccccc4)[C@H](C(=O)N[C@H]4C[C@@H]4c4ccccc4)C3)cc2Cl)C[C@H]1C(=O)N[C@H]1C[C@@H]1c1ccccc1` [Compound 61, (3S,3′S,4S,4′S)-1,1′-(2,5-Dichloroterephthaloyl)-bis(N^3,N^4-bis((1S,2R)-2-phenylcyclopropyl)pyrrolidine-3,4-dicarboxamide)], the concentration for a half-maximal effect (EC50) in the assay on mouse macrophages (setting [2]) was > 5000 nM; in assay [1] (setting [3]), 360 nM.

Regarding `O=C(N[C@H]1C[C@@H]1c1ccccc1)[C@@H]1CN(C(=O)c2cc(Br)c(C(=O)N3C[C@@H](C(=O)N[C@H]4C[C@@H]4c4ccccc4)[C@H](C(=O)N[C@H]4C[C@@H]4c4ccccc4)C3)cc2Br)C[C@H]1C(=O)N[C@H]1C[C@@H]1c1ccccc1` [Compound 62, (3S,3′S,4S,4′S)-1,1′-(2,5-Dibromoterephthaloyl)-bis(N^3,N^4-bis((1S,2R)-2-phenylcyclopropyl)pyrrolidine-3,4-dicarboxamide)], the EC50 in the assay on mouse macrophages (setting [2]) is > 5000 nM; in assay [1] (setting [3]), 860 nM.

As to `Cc1cc(C(=O)N2C[C@@H](C(=O)N[C@H]3C[C@@H]3c3ccccc3)[C@H](C(=O)N[C@H]3C[C@@H]3c3ccccc3)C2)c(C)cc1C(=O)N1C[C@@H](C(=O)N[C@H]2C[C@@H]2c2ccccc2)[C@H](C(=O)N[C@H]2C[C@@H]2c2ccccc2)C1` [Compound 63, (3S,3′S,4S,4′S)-1,1′-(2,5-Dimethylterephthaloyl)-bis(N^3,N^4-bis((1S,2R)-2-phenylcyclopropyl)pyrrolidine-3,4-dicarboxamide)], the EC50 (in the assay on mouse macrophages (setting [2]); in assay [1] (setting [3])) was > 5000 nM each time.

As for `O=C(NCCc1ccc(F)cc1)[C@@H]1CN(C(=O)C#CC(=O)N2C[C@@H](C(=O)NCCc3ccc(F)cc3)[C@H](C(=O)NCCc3ccc(F)cc3)C2)C[C@H]1C(=O)NCCc1ccc(F)cc1` [Compound 100, (3S,3′S,4S,4′S)-1,1′-(But-2-ynedi-oyl)bis(N^3,N^4-bis(4-fluorophenethyl)pyrrolidine-3,4-dicarboxamide)], the concentration for a half-maximal effect (EC50) (in the assay with mouse macrophages (setting [4]); in assay [1] (setting [5])) was > 5000 nM in each case.

Consider `O=C(NCCc1ccc(F)cc1)[C@@H]1CN(C(=O)/C=C/C(=O)N2C[C@@H](C(=O)NCCc3ccc(F)cc3)[C@H](C(=O)NCCc3ccc(F)cc3)C2)C[C@H]1C(=O)NCCc1ccc(F)cc1` [Compound 101, (3S,3′S,4S,4′S)-1,1′-Fumaroylbis-(N^3,N^4-bis(4-fluorophnethyl)pyrrolidine-3,4-dicarboxamide)], for which the EC50 (with mouse macrophages (setting [4]); in assay [1] (setting [5])) was > 5000 nM in each case.

As for `O=C(NCCc1ccc(F)cc1)[C@@H]1CN(C(=O)C/C=C/CC(=O)N2C[C@@H](C(=O)NCCc3ccc(F)cc3)[C@H](C(=O)NCCc3ccc(F)cc3)C2)C[C@H]1C(=O)NCCc1ccc(F)cc1` [Compound 102, (3S,3′S,4S,4′S)-1,1′-((E)-Hex-3-enedioyl)bis-(N^3,N^4-bis(4-fluorophenethyl)pyrrolidine-3,4-dicarboxamide)], the 50% effective concentration (EC50) (in the assay on mouse macrophages (setting [4]); in assay [1] (setting [5])) was > 5000 nM throughout.

Turning to `O=C(NCCc1ccc(F)cc1)[C@@H]1CN(C(=O)c2cccc(C(=O)N3C[C@@H](C(=O)NCCc4ccc(F)cc4)[C@H](C(=O)NCCc4ccc(F)cc4)C3)c2)C[C@H]1C(=O)NCCc1ccc(F)cc1` [Compound 103, (3S,3′S,4S,4′S)-1,1′-Isophthaloyl-bis-(N^3,N^4-bis(4-fluorophenethyl)pyrrolidine-3,4-dicarboxamide)], the EC50 (in the assay with mouse macrophages (setting [4]); in assay [1] (setting [5])) was > 5000 nM in each case.

`O=C(NCCc1ccc(F)cc1)[C@@H]1CN(C(=O)c2ccc(-c3ccc(C(=O)N4C[C@@H](C(=O)NCCc5ccc(F)cc5)[C@H](C(=O)NCCc5ccc(F)cc5)C4)cc3)cc2)C[C@H]1C(=O)NCCc1ccc(F)cc1` [Compound 104, (3S,3′S,4S,4′S)-1,1′-([1,1′-Biphenyl]-4,4′-dicarbonyl)bis(N^3,N^4-bis(4-fluoro-phenethyl)-pyrrolidine-3,4-dicarboxamide)]: the EC50 (with mouse macrophages (setting [4]); in assay [1] (setting [5])) was > 5000 nM in each case.

Consider `O=C(NCCc1ccc(F)cc1)C1CN(C(=O)COCC(=O)N2CC(C(=O)NCCc3ccc(F)cc3)C(C(=O)NCCc3ccc(F)cc3)C2)CC1C(=O)NCCc1ccc(F)cc1` [Compound 105, (3S,3′S,4S,4′S)-1,1′-(2,2′-Oxybis(acetyl))bis-(N^3,N^4-bis(4-fluorophenethyl)pyrrolidine-3,4-dicarboxamide)], for which the EC50 was > 5000 nM with mouse macrophages (Table 7, TNF-α release from mouse macrophages) and > 5000 nM in assay [1] (Table 7, TNF-α release from human THP-1 cells).

For `O=C(NCCc1ccc(F)cc1)[C@@H]1CN(C(=O)[C@@H]2CCC[C@@H](C(=O)N3C[C@@H](C(=O)NCCc4ccc(F)cc4)[C@H](C(=O)NCCc4ccc(F)cc4)C3)C2)C[C@H]1C(=O)NCCc1ccc(F)cc1` [Compound 106, (3S,3′S,4S,4′S)-1,1′-((1R,3R)-Cyclohexane-1,3-dicarbonyl)bis(N^3,N^4-bis(4-fluorophenethyl)-pyrrolidine-3,4-dicarboxamide)], the 50% effective concentration (EC50) (with mouse macrophages (setting [4]); in assay [1] (setting [5])) was > 5000 nM throughout.

In the case of `O=C(NCCc1ccc(F)cc1)[C@@H]1CN(C(=O)[C@H]2CC[C@H](C(=O)N3C[C@@H](C(=O)NCCc4ccc(F)cc4)[C@H](C(=O)NCCc4ccc(F)cc4)C3)CC2)C[C@H]1C(=O)NCCc1ccc(F)cc1` [Compound 107, (3S,3′S,4S,4′S)-1,1′-((1S,4S)-Cyclohexane-1,4-dicarbonyl)bis(N^3,N^4-bis(4-fluorophenethyl)-pyrrolidine-3,4-dicarboxamide)], the 50% effective concentration (EC50) (in the assay with mouse macrophages (setting [4]); in assay [1] (setting [5])) was > 5000 nM throughout.

Consider `O=C(NCCc1ccc(F)cc1)[C@@H]1CN(C(=O)[C@H]2CC[C@@H](C(=O)N3C[C@@H](C(=O)NCCc4ccc(F)cc4)[C@H](C(=O)NCCc4ccc(F)cc4)C3)CC2)C[C@H]1C(=O)NCCc1ccc(F)cc1` [Compound 108, (3S,3′S,4S,4′S)-1,1′-((1R,4R)-Cyclohexane-1,4-dicarbonyl)bis(N^3,N^4-bis(4-fluorophenethyl)-pyrrolidine-3,4-dicarboxamide)], for which the half-maximal effective concentration (EC50) (in the assay on mouse macrophages (setting [4]); in assay [1] (setting [5])) was > 5000 nM in each case.

Turning to `O=C(NCCc1ccc(F)cc1)[C@@H]1CN(C(=O)c2ccc3cc(C(=O)N4C[C@@H](C(=O)NCCc5ccc(F)cc5)[C@H](C(=O)NCCc5ccc(F)cc5)C4)ccc3c2)C[C@H]1C(=O)NCCc1ccc(F)cc1` [Compound 109, (3S,3′S,4S,4′S)-1,1′-(Naphthalene-2,6-dicarbonyl)-bis(N^3,N^4-bis(4-fluorophenethyl)-pyrrolidine-3,4-dicarboxamide)], the concentration giving a half-maximal response (EC50) (in the assay on mouse macrophages (setting [4]); in assay [1] (setting [5])) was > 5000 nM throughout.

Consider `O=C(NCCc1ccc(F)cc1)[C@@H]1CN(C(=O)c2ccc(C(=O)N3C[C@@H](C(=O)NCCc4ccc(F)cc4)[C@H](C(=O)NCCc4ccc(F)cc4)C3)c(O)c2)C[C@H]1C(=O)NCCc1ccc(F)cc1` [Compound 110, (3S,3′S,4S,4′S)-1,1′-(2-Hydroxy-terephthaloyl)-bis(N^3,N^4-bis(4-fluorophenethyl)-pyrrolidine-3,4-dicarboxamide)], for which the figures for the EC50 (in the assay on mouse macrophages (setting [4]); in assay [1] (setting [5])) were > 5000 nM and 130 nM, respectively.

For `O=C(NCCc1ccc(F)cc1)[C@@H]1CN(C(=O)c2ccc(C(=O)N3C[C@@H](C(=O)N[C@H]4C[C@@H]4c4ccccc4)[C@H](C(=O)N[C@H]4C[C@@H]4c4ccccc4)C3)cc2)C[C@H]1C(=O)NCCc1ccc(F)cc1` [Compound 114, (3S,4S)-1-(4-((3S,4S)-3,4-Bis(((1S,2R)-2-phenylcyclopropyl)carbamoyl)-pyrrolidine-1-carbonyl)benzoyl)—N^3,N^4-bis(4-fluorophenethyl)-pyrrolidine-3,4-dicarboxamide], the “activity in stimulating TNF-α release from mouse macrophages (in words)” value in the assay with mouse macrophages (tested up to 5 μM where stated) was “active”. Moreover, the “activity in stimulating TNF-α release from human THP-1 cells (in words)” value in assay [1] (tested up to 5 μM where stated) is “active”.

The EC50 is the concentration giving half of the maximal effect.
